US20210347727A1 (BLADE THERAPEUTICS, INC., priority 2017, published 2021)

Legend:
Human Calpain 1/NS1 = target: T1, Human Calpain 1/NS1 (Homo sapiens, UniProt P07384); assay: Biochemical inhibition of calpain 1, continuous fluorescence (FRET substrate) assay; details: mean; read-out: Human Calpain 1/NS1 IC50 (nM)_MEAN
T1 sequence (P07384 1-714): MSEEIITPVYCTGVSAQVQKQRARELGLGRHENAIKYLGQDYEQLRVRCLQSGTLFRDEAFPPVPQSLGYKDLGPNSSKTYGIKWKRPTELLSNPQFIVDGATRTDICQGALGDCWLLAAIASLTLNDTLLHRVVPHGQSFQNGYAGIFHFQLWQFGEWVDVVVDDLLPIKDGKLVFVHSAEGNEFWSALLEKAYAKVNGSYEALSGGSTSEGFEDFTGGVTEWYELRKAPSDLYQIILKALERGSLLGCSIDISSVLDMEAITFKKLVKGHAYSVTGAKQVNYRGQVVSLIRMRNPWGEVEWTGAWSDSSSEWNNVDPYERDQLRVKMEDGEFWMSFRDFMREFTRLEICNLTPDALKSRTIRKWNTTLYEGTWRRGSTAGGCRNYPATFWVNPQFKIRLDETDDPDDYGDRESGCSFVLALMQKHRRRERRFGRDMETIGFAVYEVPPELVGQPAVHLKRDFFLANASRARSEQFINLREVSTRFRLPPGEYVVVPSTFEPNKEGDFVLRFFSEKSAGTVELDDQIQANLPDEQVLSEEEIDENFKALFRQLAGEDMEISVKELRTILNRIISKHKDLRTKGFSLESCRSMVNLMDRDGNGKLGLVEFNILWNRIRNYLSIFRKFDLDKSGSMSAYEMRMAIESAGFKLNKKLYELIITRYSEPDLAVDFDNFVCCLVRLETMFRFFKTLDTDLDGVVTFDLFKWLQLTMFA
T1 sequence (P04632 1-268 partner): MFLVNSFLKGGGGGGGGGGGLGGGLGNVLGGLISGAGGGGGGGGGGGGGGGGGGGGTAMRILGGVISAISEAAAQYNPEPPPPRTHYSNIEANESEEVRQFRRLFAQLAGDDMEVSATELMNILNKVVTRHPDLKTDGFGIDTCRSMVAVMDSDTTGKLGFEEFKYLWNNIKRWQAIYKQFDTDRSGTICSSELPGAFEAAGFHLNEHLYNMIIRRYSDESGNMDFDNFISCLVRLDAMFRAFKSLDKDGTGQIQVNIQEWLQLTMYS
Description: (§1) Calpain 1, 2, and 9 activity and inhibition thereof are assessed by means of a continuous fluorescence assay. The SensoLyte 520 Calpain substrate (Anaspec Inc) is optimized for detecting calpain activity. This substrate contains a novel internally quenched 5-FAM/QXL™ 520 FRET pair. Calpains 1, 2, and 9 cleave the FRET substrate into two separate fragments resulting in an increase of 5-FAM fluorescence that is proportional to calpain activity.
(§2) Assays are typically setup in black 384-well plates using automated liquid handling as follows. Calpain assay base buffer typically contains 50 mM Tris, pH 7.5, 100 mM NaCl and 1 mM DTT. Inhibitors are serially diluted in DMSO and used to setup 2× mixtures with calpains in the aforementioned buffer. After incubation at ambient temperature (25 C), the reaction is initiated by adding a 2× mix of the fluorescent peptide substrate and CaCl2 (required for in-situ calpain activation) in the same buffer. Reaction progress curve data are typically collected for 10 min using excitation/emission wavelengths of 490 nm/520 nm on SpectraMax i3x or the FLIPR-Tetra plate readers (Molecular Devices Inc). Reaction rates were calculated from progress curve slopes typically over 1-5 min. Dose response curves (rate vs. log inhibitor concentration) were typically fit to a 4-parameter logistic function to extract IC50 values.

Human Calpain 2/NS1 = target: T2, Human Calpain 2/NS1 (Homo sapiens, UniProt P17655); assay: Biochemical inhibition of calpain 2, continuous fluorescence (FRET substrate) assay; details: mean; read-out: Human Calpain 2/NS1 1C50 [sic] (nM)_MEAN
T2 sequence (P17655 1-700): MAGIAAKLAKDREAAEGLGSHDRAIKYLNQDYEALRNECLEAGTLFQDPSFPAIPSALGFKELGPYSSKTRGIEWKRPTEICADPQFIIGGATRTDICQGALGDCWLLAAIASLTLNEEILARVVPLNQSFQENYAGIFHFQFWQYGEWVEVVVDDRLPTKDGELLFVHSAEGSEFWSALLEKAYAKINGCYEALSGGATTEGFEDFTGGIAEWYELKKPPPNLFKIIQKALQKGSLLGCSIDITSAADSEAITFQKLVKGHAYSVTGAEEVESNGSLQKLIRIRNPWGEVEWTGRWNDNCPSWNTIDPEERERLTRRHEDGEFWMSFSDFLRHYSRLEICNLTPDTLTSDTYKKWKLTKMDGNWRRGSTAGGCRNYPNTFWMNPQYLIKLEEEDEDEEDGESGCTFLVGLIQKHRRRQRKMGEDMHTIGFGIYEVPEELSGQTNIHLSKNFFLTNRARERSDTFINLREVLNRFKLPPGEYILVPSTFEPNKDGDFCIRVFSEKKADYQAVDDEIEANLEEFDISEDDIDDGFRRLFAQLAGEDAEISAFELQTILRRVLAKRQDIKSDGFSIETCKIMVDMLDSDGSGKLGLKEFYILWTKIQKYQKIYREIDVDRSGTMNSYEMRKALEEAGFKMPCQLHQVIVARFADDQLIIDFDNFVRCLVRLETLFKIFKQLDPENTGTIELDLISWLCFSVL
T2 sequence (P04632 1-268 partner): T1 sequence (P04632 1-268 partner)
Description: as §1, §2

Human Calpain 9/NS1 = target: T3, Human Calpain 9/NS1 (Homo sapiens, UniProt O14815); assay: Biochemical inhibition of calpain 9, continuous fluorescence (FRET substrate) assay; details: mean; read-out: Human Calpain 9/NS1 IC50 (nM)_MEAN
T3 sequence (O14815 1-690): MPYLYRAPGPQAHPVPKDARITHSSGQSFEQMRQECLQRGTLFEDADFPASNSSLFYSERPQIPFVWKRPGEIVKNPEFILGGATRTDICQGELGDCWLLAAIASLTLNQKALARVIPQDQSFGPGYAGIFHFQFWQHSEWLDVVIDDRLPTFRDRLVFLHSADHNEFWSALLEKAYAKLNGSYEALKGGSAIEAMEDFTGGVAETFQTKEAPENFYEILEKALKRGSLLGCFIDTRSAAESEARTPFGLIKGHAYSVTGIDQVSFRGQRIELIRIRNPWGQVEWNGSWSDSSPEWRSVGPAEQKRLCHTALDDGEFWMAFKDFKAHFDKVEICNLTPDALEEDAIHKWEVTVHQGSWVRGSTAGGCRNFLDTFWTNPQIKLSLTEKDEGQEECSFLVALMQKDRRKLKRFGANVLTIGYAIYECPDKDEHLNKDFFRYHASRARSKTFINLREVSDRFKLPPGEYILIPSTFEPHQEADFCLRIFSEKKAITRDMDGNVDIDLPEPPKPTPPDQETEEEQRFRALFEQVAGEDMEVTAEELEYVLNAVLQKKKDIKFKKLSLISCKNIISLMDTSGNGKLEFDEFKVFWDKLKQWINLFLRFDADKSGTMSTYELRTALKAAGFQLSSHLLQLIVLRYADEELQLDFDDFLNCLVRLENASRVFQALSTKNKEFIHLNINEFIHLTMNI
T3 sequence (P04632 1-268 partner): T1 sequence (P04632 1-268 partner)
Description: as §1, §2

[1] = tested on: calpain activity in SH-SY5Y cells; assay: SH-SY5Y cellular calpain activity, Suc-LLVY-AMC fluorescence assay; format: cell-based; details: Suc-LLVY-AMC substrate
Description: Calpain activity in SH-SY5Y cells and inhibition thereof were assessed by means of a homogeneous, fluorescence assay that uses the cell-permeable and pro-fluorescent calpain substrate Suc-LLVY-AMC (Sigma-Aldrich Inc). Upon intracellular calpain cleavage of Suc-LLVY-AMC, fluorescent amino-methyl-coumarin (AMC) is released into the media resulting in a continuous increase in fluorescence signal that is proportional to intra-cellular calpain activity.
Assays were typically setup by seeding SH-SY5Y cells in black 384-well plates at 40 k/per well in RPMI-1640 containing 1% serum followed by 37 C overnight incubation. Next morning, cells were pre-incubated for 30 min with serially diluted compounds followed by addition of 100 uM of Suc-LLVY-AMC substrate. The continuous increase in AMC fluorescence is monitored using a FLIPR, Tetra plate reader (Molecular Devices Inc) and slopes measured to report calpain activity. Dose response curves (slopes vs. log inhibitor concentration) were typically fit to a 4-parameter logistic function to extract IC50 values.

| IC50 (Human Calpain 1/NS1) | IC50 (Human Calpain 2/NS1) | IC50 (Human Calpain 9/NS1) | IC50 [1] | Structure (SMILES) |
| --- | --- | --- | --- | --- |
| < 3000 nM | < 3000 nM | < 3000 nM | < 10 µM | O=C(NC1CC1)C(=O)[C@H](Cc1ccccc1)NC(=O)c1c(Cl)cccc1Cl [Compound 2, (S)-2,6-DICHLORO-N-(4-(CYCLOPROPYLAMINO)-3,4-DIOXO-1-PHENYLBUTAN-2-YL)BENZAMIDE] |
| > 10000 nM | 3000 to 10000 nM | 3000 to 10000 nM | 10 to 25 µM | NC(=O)C(=O)[C@H](Cc1ccccc1)NC(=O)c1ccc(F)cc1 [Compound 4, (S)—N-(4-AMINO-3,4-DIOXO-1-PHENYLBUTAN-2-YL)-4-FLUOROBENZAMIDE] |
| 3000 to 10000 nM | > 10000 nM | > 10000 nM | > 25 µM | NC(=O)C(=O)C(Cc1ccccc1)NC(=O)n1c2ccccc2c2ccccc21 (stereo not shown) [Compound 8, N-(4-AMINO-3,4-DIOXO-1-PHENYLBUTAN-2-YL)-9H-CARBAZOLE-9-CARBOXAMIDE] |
| > 10000 nM | 3000 to 10000 nM | > 10000 nM | 10 to 25 µM | NC(=O)C(=O)C(Cc1ccccc1)NC(=O)C1c2ccccc2-c2ccccc21 (stereo not shown) [Compound 10, N-(4-AMINO-3,4-DIOXO-1-PHENYLBUTAN-2-YL)-9H-FLUORENE-9-CARBOXAMIDE] |
| < 3000 nM | < 3000 nM | < 3000 nM | < 10 µM | COc1ccc(Cl)cc1C(=O)N[C@@H](Cc1ccccc1)C(=O)C(N)=O [Compound 17, (S)—N-(4-AMINO-3,4-DIOXO-1-PHENYLBUTAN-2-YL)-5-CHLORO-2-METHOXYBENZAMIDE] |
| > 10000 nM | > 10000 nM | 3000 to 10000 nM | > 25 µM | COc1cccc(OC)c1C(=O)N[C@@H](Cc1ccccc1)C(=O)C(N)=O [Compound 18, (S)—N-(4-AMINO-3,4-DIOXO-1-PHENYLBUTAN-2-YL)-2,6-DIMETHOXYBENZAMIDE] |
| < 3000 nM | < 3000 nM | < 3000 nM | > 25 µM | NC(=O)C(=O)[C@H](Cc1ccccc1)NC(=O)c1c(Cl)cccc1C(F)(F)F [Compound 19, (S)—N-(4-AMINO-3,4-DIOXO-1-PHENYLBUTAN-2-YL)-2-CHLORO-6-(TRIFLUOROMETHYL)BENZAMIDE] |
| < 3000 nM | 3000 to 10000 nM | < 3000 nM | 10 to 25 µM | NC(=O)C(=O)[C@H](Cc1ccccc1)NC(=O)c1c(C(F)(F)F)cccc1C(F)(F)F [Compound 20, (S)—N-(4-AMINO-3,4-DIOXO-1-PHENYLBUTAN-2-YL)-2,6-BIS(TRIFLUOROMETHYL)BENZAMIDE] |
| < 3000 nM | < 3000 nM | < 3000 nM | > 25 µM | NC(=O)C(=O)[C@H](Cc1ccccc1)NC(=O)c1c(Cl)cccc1-c1ccccc1 [Compound 21, (S)—N-(4-AMINO-3,4-DIOXO-1-PHENYLBUTAN-2-YL)-3-CHLORO-[1,1′-BIPHENYL]-2-CARBOXAMIDE] |
| < 3000 nM | > 10000 nM | > 10000 nM | < 10 µM | NC(=O)C(=O)[C@H](Cc1ccccc1)NC(=O)c1ccc(-c2ccccc2)cc1 [Compound 23, (S)—N-(4-AMINO-3,4-DIOXO-1-PHENYLBUTAN-2-YL)-[1,1′-BIPHENYL]-4-CARBOXAMIDE] |
| < 3000 nM | < 3000 nM | < 3000 nM | < 10 µM | NC(=O)C(=O)C(Cc1ccccc1)NC(=O)c1cccc(F)c1 (stereo not shown) [Compound 25, N-(4-AMINO-3,4-DIOXO-1-PHENYLBUTAN-2-YL)-3-FLUOROBENZAMIDE] |
| < 3000 nM | < 3000 nM | < 3000 nM | < 10 µM | Cc1cccc(C(=O)NC(Cc2ccccc2)C(=O)C(N)=O)c1C (stereo not shown) [Compound 26, N-(4-AMINO-3,4-DIOXO-1-PHENYLBUTAN-2-YL)-2,3-DIMETHYLBENZAMIDE] |

| Structure (SMILES) | IC50 (Human Calpain 1/NS1) | IC50 (Human Calpain 2/NS1) | IC50 (Human Calpain 9/NS1) | IC50 [1] |
| --- | --- | --- | --- | --- |
| NC(=O)C(=O)C(Cc1ccccc1)NC(=O)N1c2ccccc2Oc2ccccc21 (stereo not shown) [Compound 6, N-(4-AMINO-3,4-DIOXO-1-PHENYLBUTAN-2-YL)-10H-PHENOXAZINE-10-CARBOXAMIDE] | < 3000 nM | < 3000 nM | > 10000 nM | > 25 µM |
